Experimental data from patent US20230167062A1, “AMIDE COMPOUND CONTAINING SUBSTITUTED ACETOPHENONE STRUCTURAL FRAGMENTS AND PREPARATION METHOD AND APPLICATION THEREOF” (SHENYANG SINOCHEM AGROCHEMICALS R&D CO., LTD., priority 2019, published 2023).

Key:
cucumber downy mildew = test: In vivo protection activity against cucumber downy mildew (live pot determination); details: for control effects, Cucumber downy mildew: 400 ppm (Table 2); for control effects on cucumber downy mildew: dose of 400 ppm, spray, inoculated after 24 hours
Experimental: (§1) The test of in vivo protection effect is conducted on various fungal diseases of plants through samples of the compounds of the present invention. The determination results of the fungal activity are shown in the following embodiments.
(§2) The determination method is as follows: the to-be-determined sample of the compound of general formula I obtained above was dissolved with a small amount of solvent (the type of the solvent is, for example, acetone, methanol, DMF, etc., and is selected according to the dissolving ability to the sample; and the volume ratio of the solvent amount to the liquid spray amount is equal to or less than 0.05) by a live pot determination method, and diluted with water containing 0.1% Tween 80 to prepare to-be-determined liquid with required concentration. On a crop sprayer, the to-be-determined liquid was sprayed onto disease host plants (the host plants are standard potted seedlings cultivated in a greenhouse), and the disease was inoculated after 24 hours. According to the characteristics of the disease, the diseased plants that need to be cultivated under temperature control and moisturizing were inoculated and then placed in an artificial climate chamber for cultivation. […] After full onset through control (usually one week), the disease prevention effect of the compound was evaluated.

wheat powdery mildew = test: In vivo protection activity against wheat powdery mildew (live pot determination); details: for control effects on wheat powdery mildew: dose of 400 ppm
Experimental: as §1, §2

corn rust = test: In vivo protection activity against corn rust (live pot determination); details: for control effects, Corn rust: 400 ppm (Table 4); for control effects on corn rust: dose of 400 ppm
Experimental: as §1, §2

cucumber anthracnose = test: In vivo protection activity against cucumber anthracnose (live pot determination); details: dose of 400 ppm
Experimental: as §1, §2

cucumber botrytis = test: In vivo protection activity against cucumber botrytis (live pot determination); details: 200 ppm
Experimental: as §1, §2

tomato botrytis = test: In vivo protection activity against tomato botrytis (live pot determination)
Experimental: as §1, §2

SMILES	control effects, Cucumber downy mildew (cucumber downy mildew)	control effects on cucumber downy mildew (cucumber downy mildew)	control effects, Wheat powdery mildew (wheat powdery mildew; 400 ppm (Table 3))	control effects on wheat powdery mildew (wheat powdery mildew)	control effects, Corn rust (corn rust)	control effects on corn rust (corn rust)	control effects on cucumber anthracnose (cucumber anthracnose)	Control effects on cucumber botrytis (%) (cucumber botrytis)	Control effects on tomato botrytis (%) (tomato botrytis; 25 ppm)	Control effects on tomato botrytis (%) (tomato botrytis; 100 ppm)	control effects, Wheat powdery mildew (wheat powdery mildew; 100 ppm (Table 3))	melting point
Cc1cc(OC(C)C)ccc1C(=O)C(C)(C)NC(=O)c1cccnc1C(F)(F)F [CK1]	0	0%	85	85%	0	0%	0%	0%	–	–	–	–
Cc1cc(OC(C)C)ccc1C(=O)C(C)(C)NC(=O)c1cccnc1Cl [CK2]	0	0%	85	85%	0	0%	0%	0%	0%	20%	–	–
Cc1cc(OC(C)C)ccc1C(=O)C(C)(C)NC(=O)c1cn(C)nc1C(F)(F)F [CK3]	0	0%	85	85%	0	0%	0%	60%	20%	35%	–	–
Cc1cc(OC(C)C)ccc1C(=O)C(C)(C)NC(=O)c1c(C(F)(F)F)nn(C)c1Cl [CK4]	0	0%	75	75%	0	0%	0%	25%	0%	0%	–	–
Cc1cc(OC(C)C)ccc1C(=O)C(C)(C)NC(=O)c1cccnc1C(F)F [Compound I-2]	40	–	100	–	–	–	–	–	–	–	100	96.9 °C
